The numbers were not newly measured in article PMC10465233, “Lys-urea-Aad, Lys-urea-Cmc and Lys-urea-Cms as potential pharmacophores for the design of PSMA-targeted radioligands to reduce off-target uptake in kidneys and salivary glands” (Theranostics, 2023), which cites them from elsewhere.

A word on the Ki: it is the dissociation constant of the complex between target and ligand, obtained from inhibition or displacement.

One series has as its system 22Rv1 tumor model. Also on record: method as in PMID 34453203. The note with it: 1 h post-injection, 22Rv1, BALB/c nude; cited from earlier work.
The next series addresses T1, PSMA (Homo sapiens, UniProt Q04609).
T1 construct: host or cells: LNCaP prostate cancer cells
Also on record: method as in PMID 36168623. To be noted: LNCaP cells; cited from earlier work.

T1 sequence (Q04609 whole entry): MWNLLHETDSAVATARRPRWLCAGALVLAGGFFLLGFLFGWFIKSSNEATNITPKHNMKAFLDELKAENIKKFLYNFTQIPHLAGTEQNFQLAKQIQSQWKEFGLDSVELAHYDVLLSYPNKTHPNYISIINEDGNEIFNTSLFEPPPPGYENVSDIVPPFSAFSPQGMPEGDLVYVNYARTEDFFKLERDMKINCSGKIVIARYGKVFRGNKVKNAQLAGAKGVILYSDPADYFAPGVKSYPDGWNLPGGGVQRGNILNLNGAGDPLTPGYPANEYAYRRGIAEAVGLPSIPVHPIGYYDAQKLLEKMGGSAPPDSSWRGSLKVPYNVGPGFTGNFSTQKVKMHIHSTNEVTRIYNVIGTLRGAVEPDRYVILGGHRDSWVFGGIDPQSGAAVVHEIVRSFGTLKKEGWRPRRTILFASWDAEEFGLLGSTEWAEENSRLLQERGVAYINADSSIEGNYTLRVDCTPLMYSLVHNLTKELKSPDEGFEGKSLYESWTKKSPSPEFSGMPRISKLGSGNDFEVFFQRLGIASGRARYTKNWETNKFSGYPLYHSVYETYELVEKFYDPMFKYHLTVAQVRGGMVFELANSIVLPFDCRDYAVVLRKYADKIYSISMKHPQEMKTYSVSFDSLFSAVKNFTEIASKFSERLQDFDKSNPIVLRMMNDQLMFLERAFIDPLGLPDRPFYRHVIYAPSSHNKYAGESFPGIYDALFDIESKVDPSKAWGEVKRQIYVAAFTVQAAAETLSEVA

As for `O=C([O-])CN1CCN(CC(=O)[O-])CCN(CC(=O)NCC2CCC(C(=O)NC(Cc3ccc4ccccc4c3)C(=O)NCCCCC(NC(=O)NC(CCC(=O)O)C(=O)O)C(=O)O)CC2)CCN(CC(=O)[O-])CC1.[68Ga+3]` (centres unmarked) [[^68Ga]Ga-PSMA-617], the Tumor uptake in the series with 22Rv1 tumor model is 3.41±1.31 %ID/g. Regarding `O=C([O-])CN1CCN(CC(=O)[O-])CCN(CC(=O)NCC2CCC(C(=O)NC(Cc3c4ccccc4cc4ccccc34)C(=O)NCCCCC(NC(=O)NC(CCCC(=O)O)C(=O)O)C(=O)O)CC2)CCN(CC(=O)[O-])CC1.[Ga+3]` (centres unmarked) [Ga-HTK03149], on PSMA, the Ki was 6.99 ± 0.8 nM.
